Test results reported in patent US20250205256A1 (GH RESEARCH IRELAND LIMITED, priority 2022, published 2025).
Where “and” joins values, the source holds several entries; their conditions need not be identical. Equal values may be shown once.

Experiments:
[1] = tested on: Salmonella typhimurium strains TA98, TA100, TA1535 and TA1537; experiment: Bacterial mutation test, Salmonella typhimurium; format: cell-based; conditions: up to 5000 μg/plate, absence and presence of rat liver S-9
Description: These conditions included treatments at concentrations up to 5000 μg/plate (the maximum recommended concentration according to current regulatory guidelines), in the absence and in the presence of a rat liver metabolic activation system (S-9).

[2] = tested on: patients with treatment-resistant major depressive disorder (TRD); experiment: Phase 1/2 clinical trial of inhaled 5-MeO-DMT in TRD: MADRS; format: in vivo, human; conditions: for mean MADRS change from baseline at day seven / mean MADRS change from baseline at day seven, percent: n=4
Source text: Patients were assigned to different groups.
This trial was designed in two parts.

[3] = tested on: patient with postpartum depression (PPD); experiment: Clinical trial of inhaled 5-MeO-DMT (IDR, 6 mg then 12 mg) in postpartum depression: BPRS; format: in vivo, human; conditions: PPD n=1
Source text: (§1) The patient completed all planned visit days.

[4] = tested on: patient with postpartum depression (PPD); experiment: Clinical trial of inhaled 5-MeO-DMT in postpartum depression: Barkin Index of Maternal Functioning (BIMF); format: in vivo, human; conditions: PPD n=1
Source text: Maternal functioning can, for instance, be assessed using the Barkin Index of Maternal Functioning (BIMF). This index was designed to measure functioning in the year after childbirth. The BIMF is a 20-item self-report measure of functioning. Each item is assigned a score between 0 and 6 so that the maximum total score is 120. The higher the score, the better maternal functioning is rated.
The BIMF identifies the key functional domains of a mother during the postnatal period as: self-care, infant care, mother-child interaction, psychological wellbeing of the mother, social support, management, and adjustment.
as §1

[5] = 12 mg n=4 sum, 2 h after dose vs baseline
[6] = 12 mg n=4 sum, 2 h after dose, baseline 16
[7] = 12 mg n=4 sum, Day 1, baseline 16
[8] = 12 mg n=4 sum, Day 1 vs baseline
[9] = 12 mg n=4 sum, Day 7, baseline 16
[10] = 12 mg n=4 sum, Day 7 vs baseline
[11] = IDR n=8 sum, 2 h after last dose vs baseline

## COc1ccc2[nH]cc(CCN(C)C)c2c1 [5-MeO-DMT]
[1]
  induction of mutation: did not induce mutation
[2]; [5]
  MADRS Concentration Difficulties improvement: 9
  MADRS Inability to Feel improvement: 7
  MADRS Inner Tension improvement: 11
  MADRS Lassitude improvement: 6
  MADRS Pessimistic Thoughts improvement: 8
  MADRS Pessimistic Thoughts percentage improvement: 50.00%
  MADRS Suicidal Thoughts improvement: 5
[2]; 12 mg n=4 sum, 2 h after dose, baseline 8
  MADRS Suicidal Thoughts score: 3
[2]; 12 mg n=4 sum, 2 h after dose, baseline 13
  MADRS Inner Tension score: 2
[2]; [6]
  MADRS Concentration Difficulties score: 7
  MADRS Inability to Feel score: 9
  MADRS Lassitude score: 10
  MADRS Pessimistic Thoughts score: 8
[2]; 12 mg n=4 sum, Day 1, baseline 8
  MADRS Suicidal Thoughts score: 5
[2]; 12 mg n=4 sum, Day 1, baseline 12
  MADRS Reduced Sleep score: 10
[2]; 12 mg n=4 sum, Day 1, baseline 13
  MADRS Inner Tension score: 3
[2]; [7]
  MADRS Concentration Difficulties score: 2
  MADRS Inability to Feel score: 1
  MADRS Pessimistic Thoughts score: 7
[2]; [8]
  MADRS Concentration Difficulties improvement: 14
  MADRS Inability to Feel improvement: 15
  MADRS Inner Tension improvement: 10
  MADRS Lassitude improvement: 16
  MADRS Pessimistic Thoughts improvement: 9
  MADRS Reduced Sleep improvement: 2
  MADRS Suicidal Thoughts improvement: 3
[2]; 12 mg n=4 sum, Day 7, baseline 8
  MADRS Suicidal Thoughts score: 7
[2]; 12 mg n=4 sum, Day 7, baseline 12
  MADRS Reduced Sleep score: 6
[2]; 12 mg n=4 sum, Day 7, baseline 13
  MADRS Inner Tension score: 5
[2]; [9]
  MADRS Concentration Difficulties score: 3
  MADRS Inability to Feel score: 1
  MADRS Lassitude score: 3
  MADRS Pessimistic Thoughts score: 8
[2]; [10]
  MADRS Concentration Difficulties improvement: 13
  MADRS Inability to Feel improvement: 15
  MADRS Inner Tension improvement: 8
  MADRS Lassitude improvement: 13
  MADRS Pessimistic Thoughts improvement: 8
  MADRS Pessimistic Thoughts percentage improvement: 50.00%
  MADRS Reduced Sleep improvement: 6
  MADRS Reduced Sleep percentage improvement: 50.00%
  MADRS Suicidal Thoughts improvement: 1
[2]; [11]
  MADRS Concentration Difficulties improvement: 19
  MADRS Inability to Feel improvement: 24
  MADRS Inner Tension improvement: 15
  MADRS Lassitude improvement: 17
  MADRS Pessimistic Thoughts improvement: 21
  MADRS Pessimistic Thoughts percentage improvement: 75.00%
  MADRS Suicidal Thoughts improvement: 8
[2]; IDR n=8 sum, 2 h after last dose, baseline 11
  MADRS Suicidal Thoughts score: 3
[2]; IDR n=8 sum, 2 h after last dose, baseline 26
  MADRS Inner Tension score: 11
[2]; IDR n=8 sum, 2 h after last dose, baseline 27
  MADRS Lassitude score: 10
[2]; IDR n=8 sum, 2 h after last dose, baseline 28
  MADRS Pessimistic Thoughts score: 7
[2]; IDR n=8 sum, 2 h after last dose, baseline 30
  MADRS Concentration Difficulties score: 11
[2]; IDR n=8 sum, 2 h after last dose, baseline 36
  MADRS Inability to Feel score: 12
[2]; IDR n=8 sum, Day 1, baseline 11
  MADRS Suicidal Thoughts score: 1
[2]; IDR n=8 sum, Day 1, baseline 25
  MADRS Reduced Sleep score: 12
[2]; IDR n=8 sum, Day 1, baseline 26
  MADRS Inner Tension score: 6
[2]; IDR n=8 sum, Day 1, baseline 27
  MADRS Lassitude score: 5
[2]; IDR n=8 sum, Day 1, baseline 28
  MADRS Pessimistic Thoughts score: 4
[2]; IDR n=8 sum, Day 1, baseline 30
  MADRS Concentration Difficulties score: 1
[2]; IDR n=8 sum, Day 1, baseline 36
  MADRS Inability to Feel score: 2
[2]; IDR n=8 sum, Day 1 vs baseline
  MADRS Concentration Difficulties improvement: 29
  MADRS Inability to Feel improvement: 34
  MADRS Inner Tension improvement: 20
  MADRS Lassitude improvement: 22
  MADRS Pessimistic Thoughts improvement: 24
  MADRS Reduced Sleep improvement: 13
  MADRS Reduced Sleep percentage improvement: 52.00%
  MADRS Suicidal Thoughts improvement: 10
[2]; IDR n=8 sum, Day 7, baseline 11
  MADRS Suicidal Thoughts score: 3
[2]; IDR n=8 sum, Day 7, baseline 25
  MADRS Reduced Sleep score: 9
[2]; IDR n=8 sum, Day 7, baseline 26
  MADRS Inner Tension score: 12
[2]; IDR n=8 sum, Day 7, baseline 27
  MADRS Lassitude score: 3
[2]; IDR n=8 sum, Day 7, baseline 28
  MADRS Pessimistic Thoughts score: 3
[2]; IDR n=8 sum, Day 7, baseline 30
  MADRS Concentration Difficulties score: 9
[2]; IDR n=8 sum, Day 7, baseline 36
  MADRS Inability to Feel score: 6
[2]; IDR n=8 sum, Day 7 vs baseline
  MADRS Concentration Difficulties improvement: 21
  MADRS Inability to Feel improvement: 30
  MADRS Inner Tension improvement: 14
  MADRS Lassitude improvement: 24
  MADRS Pessimistic Thoughts improvement: 25
  MADRS Reduced Sleep improvement: 16
  MADRS Reduced Sleep percentage improvement: 64.00%
  MADRS Suicidal Thoughts improvement: 8
[2]; Part A, 12 mg
  mean MADRS change from baseline at day seven: −21.0
  mean MADRS change from baseline at day seven, percent: −65%
[2]; Part A, 12 mg, two of four patients
  patients with MADRS remission (total score ≤10) on day seven: 50%
[2]; Part A, 18 mg
  mean MADRS change from baseline at day seven: −12.8
  mean MADRS change from baseline at day seven, percent: −41%
[2]; Part A, 18 mg, one further patient of four
  further patients with MADRS clinical response on day seven: 25%
[2]; Part A, 18 mg, one of four patients
  patients with MADRS remission (total score ≤10) on day seven: 25%
[2]; Part B, IDR, seven of eight patients, p<0.0001
  patients with MADRS remission (total score ≤10) on day seven: 87.5%
[3]; Day 1 vs baseline
  BPRS Tension improvement: 5
[3]; Discharge vs baseline
  BPRS Tension improvement: 5
[4]; Day 7, from 92 to 105
  BIMF total score improvement, percent: 14%
[4]; Day 7, Day 0 score 3
  BIMF item 16 (I worry about how other people judge me (as a mother)) score: 5
[4]; Day 7, Day 0 score 5
  BIMF item 10 (I trust my own feelings (instincts) when taking care of my baby) score: 6
[4]; Day 7, Day 0 score 5, maximum 12
  BIMF functional domain Adjustment score: 6
[4]; Day 7, Day 0 score 9, maximum 18
  BIMF functional domain Self Care score: 13
[4]; Day 7, Day 0 score 12, maximum 12
  BIMF functional domain Infant Care score: 12
[4]; Day 7, Day 0 score 15, maximum 18
  BIMF functional domain Mother-Child Interaction score: 17
[4]; Day 7, Day 0 score 17, maximum 18
  BIMF functional domain Social Support score: 18
[4]; Day 7, Day 0 score 28, maximum 36
  BIMF functional domain Management score: 33
[4]; Day 7, Day 0 score 44, maximum 60
  BIMF functional domain Psychological Well-being score: 53
[4]; Day 7 vs Day 0
  BIMF TOTAL Δ (Day 7): 13
  BIMF functional domain Adjustment % Improvement: 20.00%
  BIMF functional domain Adjustment Δ (Day 7): 1
  BIMF functional domain Infant Care % Improvement: 0.00%
  BIMF functional domain Infant Care Δ (Day 7): 0
  BIMF functional domain Management % Improvement: 18% and 17.86%
  BIMF functional domain Management Δ (Day 7): 5
  BIMF functional domain Mother-Child Interaction % Improvement: 13.33%
  BIMF functional domain Mother-Child Interaction Δ (Day 7): 2
  BIMF functional domain Psychological Well-being % Improvement: 20.45%
  BIMF functional domain Psychological Well-being Δ (Day 7): 9
  BIMF functional domain Self Care % Improvement: 44% and 44.44%
  BIMF functional domain Self Care Δ (Day 7): 4
  BIMF functional domain Social Support % Improvement: 5.88%
  BIMF functional domain Social Support Δ (Day 7): 1
  BIMF item 1 (I am a good mother) Δ (Day 7): 0
  BIMF item 2 (I feel rested) Δ (Day 7): 2
  BIMF item 3 (comfortable with the way I've chosen to feed my baby) Δ (Day 7): 0
  BIMF item 4 (My baby and I understand each other) Δ (Day 7): 0
  BIMF item 5 (able to relax and enjoy time with my baby) Δ (Day 7): 1
  BIMF item 6 (people I can trust to care for my baby when I need a break) Δ (Day 7): 0
  BIMF item 8 (getting enough adult interaction) Δ (Day 7): 0
  BIMF item 9 (getting enough encouragement from other people) Δ (Day 7): 1
  BIMF item 10 (I trust my own feelings (instincts) when taking care of my baby) Δ (Day 7): 1
  BIMF item 11 (a little time each week to do something for myself) Δ (Day 7): 1
  BIMF item 12 (taking good care of my baby's physical needs) Δ (Day 7): 0
  BIMF item 13 (taking good care of my physical needs) Δ (Day 7): 1
  BIMF item 14 (good decisions about my baby's health and well being) Δ (Day 7): 0
  BIMF item 15 (My baby and I are getting into a routine) Δ (Day 7): 1
  BIMF item 16 (I worry about how other people judge me (as a mother)) Δ (Day 7): 2
  BIMF item 17 (able to take care of my baby and my other responsibilities) Δ (Day 7): 0
  BIMF item 18 (Anxiety or worry often interferes with my mothering ability) Δ (Day 7): 3
  BIMF item 19 (getting better at taking care of my baby) Δ (Day 7): 1
  BIMF item 20 (satisfied with the job I am doing as a new mother) Δ (Day 7): −1
